The experiment concerns HIF-1-mediated transcription. The experiment in a line: HIF-1-mediated transcription under hypoxia, LN229-HRE-Lux luciferase reporter assay. Particulars: for IC50: LN229-HRE-Lux cells, hypoxia (1% O2). Format: cell-based, human. As for the experimental part:
The synthesized analogues were evaluated for their potential to inhibit HIF-1-mediated transcription under hypoxia (1% O2) using a human glioma cell line LN229-HRE-Lux, which stably expresses a hypoxia-responsive luciferase reporter gene (Table 1-9). […] The compounds were tested in single (n=1) or multiple (n>1) independent experiments each carried out in quadruplicate.
LN229-HRE-luciferase human glioblastoma cells were used to perform the assay. […] 48-well plates were seeded with 3.10^4 cells per well and incubated under normoxic conditions for 24 h. Cells were then pre-treated with different concentrations of KCN-1 or its analogues for 1 h and then transferred to hypoxic conditions. After 24 h, media was aspirated, cells were lysed and reporter activity was measured in the lysate using Luciferase Assay System (Promega, Madison, Wis.) with 20/20^n Luminometer (Promega).
Background: Reporter assays use an easily measured gene product as a stand-in for the process of interest.

[1] abbreviates: Homo sapiens, 24 h, Table 7, 24 h, results from single runs, read-out: IC50.
The mark [2] stands for this setting: Homo sapiens, 24 h, 24 h, read-out: IC50.
Setting [3] is: Homo sapiens, 24 h, Table 8, 24 h, results from single runs, read-out: IC50.
The mark [4] stands for this setting: Homo sapiens, 24 h, Table 9, results from single runs.

23 compounds from patent publication US9062072B2, “Inhibitors of HIF and angiogenesis” (Emory University, priority 2010, dated 2015) can be followed below.

Where two headings read alike, the source gives them in different places.

Turning to `COc1ccc(S(=O)(=O)N(Cc2ccc3c(n2)C=CC(C)(C)O3)c2ccccc2)cc1OC` [Compound 26a, N-((2,2-dimethyl-2H-pyrano[3,2-b]pyridin-6-yl)methyl)-3,4-dimethoxy-N-phenylbenzenesulfonamide], the 50% inhibitory concentration (IC50) is, setting by setting: under setting [1], 1300 nM; (Homo sapiens, unit inferred, read-out: IC50) 1300 nM.

For `CCCCN(Cc1ccc2c(n1)C=CC(C)(C)O2)S(=O)(=O)c1ccc(OC)c(OC)c1` [Compound 26b, N-Butyl-N-((2,2-dimethyl-2H-pyrano[3,2-b]pyridin-6-yl)methyl)-3,4-dimethoxybenzenesulfonamide], the half-maximal inhibitory concentration (IC50) under setting [1] amounted to 900 nM.

`COc1ccc(N(Cc2ccc3c(n2)C=CC(C)(C)O3)S(=O)(=O)c2ccc(OC)c(OC)c2)cc1OC` [Compound 26c, N-(3,4-Dimethoxyphenyl)-N-((2,2-dimethyl-2H-pyrano[3,2-b]pyridin-6-yl)methyl)-3,4-dimethoxybenzenesulfonamide]: the IC50 under setting [1] was greater than 25000 nM.

In the case of `COc1ccc(S(=O)(=O)N(Cc2ccc3c(n2)C=CC(C)(C)O3)C2CCCC2)cc1OC` [Compound 26d, N-Cyclopentyl-N-((2,2-dimethyl-2H-pyrano[3,2-b]pyridin-6-yl)methyl)-3,4-dimethoxybenzenesulfonamide], the IC50 under setting [1] was 600 nM.

Regarding `COc1ccc(S(=O)(=O)N(Cc2ccc3c(n2)C=CC(C)(C)O3)C2CCCCC2)cc1OC` [Compound 26e, N-Cyclohexyl-N-((2,2-dimethyl-2H-pyrano[3,2-b]pyridin-6-yl)methyl)-3,4-dimethoxybenzenesulfonamide], the IC50 under setting [1] worked out at 800 nM.

Take `COc1ccc(S(=O)(=O)N(Cc2ccc3c(n2)C=CC(C)(C)O3)C2CCCCCC2)cc1OC` [Compound 26g, N-Cycloheptyl-N-((2,2-dimethyl-2H-pyrano[3,2-b]pyridin-6-yl)methyl)-3,4-dimethoxybenzenesulfonamide]: the IC50 under setting [1] turned out to be 6600 nM.

Regarding `COc1ccc(S(=O)(=O)N(Cc2ccc3c(n2)C=CC(C)(C)O3)C2CCCCCCC2)cc1OC` [Compound 26h, N-Cyclooctyl-N-((2,2-dimethyl-2H-pyrano[3,2-b]pyridin-6-yl)methyl)-3,4-dimethoxybenzenesulfonamide], the IC50 under setting [1] was 700 nM.

On to `COc1ccc(S(=O)(=O)N(Cc2ccc3c(n2)C=CC(C)(C)O3)C2CCC2)cc1OC` [Compound 26i, N-Cyclobutyl-N-((2,2-dimethyl-2H-pyrano[3,2-b]pyridin-6-yl)methyl)-3,4-dimethoxybenzenesulfonamide], for which the IC50 is, setting by setting: under setting [1], 250 nM; under setting [2], 250 nM; (24 h, read-out: IC50) 400 nM. Besides, the “fold higher potency than KCN-1” value (IC50 compared with KCN-1, LN229-HRE-Lux reporter assay) is roughly 3 fold.

`COc1ccc(S(=O)(=O)N(Cc2ccc3c(n2)C=CC(C)(C)O3)c2ccc(F)cc2)cc1OC` [Compound 26j, N-((2,2-dimethyl-2H-pyrano[3,2-b]pyridin-6-yl)methyl)-N-(4-fluorophenyl)-3,4-dimethoxybenzenesulfonamide]: under setting [1], the concentration for half-maximal inhibition (IC50) was 5700 nM.

Take `CC1(C)C=Cc2nc(CN(c3ccccc3)S(=O)(=O)C3CCCCC3)ccc2O1` [Compound 26k, N-((2,2-Dimethyl-2H-pyrano[3,2-b]pyridin-6-yl)methyl)-N-phenylcyclohexanesulfonamide]: the concentration for half-maximal inhibition (IC50) (Homo sapiens, 24 h, Table 8, results from single runs) is 400 nM.

As for `CC(C)S(=O)(=O)N(Cc1ccc2c(n1)C=CC(C)(C)O2)c1ccccc1` [Compound 26l, N-((2,2-Dimethyl-2H-pyrano[3,2-b]pyridin-6-yl)methyl)-N-phenylpropane-2-sulfonamide], the IC50 under setting [3] was 13400 nM.

For the compound `CC1(C)C=Cc2nc(CN(c3ccccc3)S(=O)(=O)C3CC3)ccc2O1` [Compound 26m, N-((2,2-Dimethyl-2H-pyrano[3,2-b]pyridin-6-yl)methyl)-N-phenylcyclopropanesulfonamide], the IC50 under setting [3] is greater than 25000 nM.

For `CCCCS(=O)(=O)N(Cc1ccc2c(n1)C=CC(C)(C)O2)c1ccccc1` [Compound 26n, N-((2,2-Dimethyl-2H-pyrano[3,2-b]pyridin-6-yl)methyl)-N-phenylbutane-1-sulfonamide], the IC50 under setting [3] is 5000 nM.

As for `CCCS(=O)(=O)N(Cc1ccc2c(n1)C=CC(C)(C)O2)c1ccccc1` [Compound 26o, N-((2,2-Dimethyl-2H-pyrano[3,2-b]pyridin-6-yl)methyl)-N-phenylpropane-1-sulfonamide], under setting [3], the IC50 came out at 6400 nM.

As to `CC(C)CS(=O)(=O)N(Cc1ccc2c(n1)C=CC(C)(C)O2)c1ccccc1` [Compound 26p, N-((2,2-Dimethyl-2H-pyrano[3,2-b]pyridin-6-yl)methyl)-2-methyl-N-phenylpropane-1-sulfonamide], under setting [3], the half-maximal inhibitory concentration (IC50) turned out to be 900 nM.

As to `CC1(C)C=Cc2nc(CN(c3ccccc3)S(=O)(=O)c3ccc(-c4ccccc4)cc3)ccc2O1` [Compound 26q, N-((2,2-Dimethyl-2H-pyrano[3,2-b]pyridin-6-yl)methyl)-N-phenylbiphenyl-4-sulfonamide], the half-inhibitory concentration (IC50) under setting [3] amounted to 3400 nM.

With `CC1(C)C=Cc2nc(CN(c3ccccc3)S(=O)(=O)c3cccc4cccnc34)ccc2O1` [Compound 26s, N-((2,2-Dimethyl-2H-pyrano[3,2-b]pyridin-6-yl)methyl)-N-phenylquinoline-8-sulfonamide], the IC50 is, setting by setting: under setting [3], 900 nM; under setting [2], 900 nM.

Take `CC1(C)C=Cc2nc(CN(c3ccccc3)S(=O)(=O)c3ccc4c(c3)OCCO4)ccc2O1` [Compound 26t, N-((2,2-dimethyl-2H-pyrano[3,2-b]pyridin-6-yl)methyl)-N-phenyl-2,3-dihydrobenzo[b][1,4]dioxine-6-sulfonamide]: under setting [3], the concentration for half-maximal inhibition (IC50) turned out to be 900 nM.

Regarding `COc1ccc(S(=O)(=O)N(Cc2cc3c(cn2)OC(C)(C)C=C3)c2ccccc2)cc1` [Compound 36a, N-((2,2-Dimethyl-2H-pyrano[2,3-c]pyridin-6-yl)methyl)-4-methoxy-N-phenylbenzenesulfonamide], the IC50 by setting is: (Homo sapiens, 24 h, Table 9, 24 h, results from single runs, read-out: IC50) 1400 nM; under setting [2], 1420 nM.

In turn, `CC1(C)C=Cc2cc(CN(c3ccccc3)S(=O)(=O)c3ccc([N+](=O)[O-])cc3)ncc2O1` [Compound 36b, N-((2,2-Dimethyl-2H-pyrano[2,3-c]pyridin-6-yl)methyl)-4-nitro-N-phenylbenzenesulfonamide] had an IC50 under setting [4] of 1800 nM and a half-maximal inhibitory concentration (IC50) (Homo sapiens, 24 h) of 1800 nM.

In the case of `CC(C)c1ccc(S(=O)(=O)N(Cc2cc3c(cn2)OC(C)(C)C=C3)C2CCCCC2)cc1` [Compound 36c, N-Cyclohexyl-N-((2,2-dimethyl-2H-pyrano[2,3-c]pyridin-6-yl)methyl)-4-isopropylbenzenesulfonamide], the concentration for half-maximal inhibition (IC50) by setting is: under setting [4], 1100 nM; (Homo sapiens, 24 h) 1080 nM.

With `COc1ccc(S(=O)(=O)N(Cc2cc3c(cn2)OC(C)(C)C=C3)C2CCCCC2)cc1OC` [Compound 36d, N-Cyclohexyl-N-((2,2-dimethyl-2H-pyrano[2,3-c]pyridin-6-yl)methyl)-3,4-dimethoxybenzenesulfonamide], the IC50 under setting [4] amounted to 5800 nM.

For `COc1ccc(S(=O)(=O)N(Cc2ccc3c(c2)C=CC(C)(C)O3)c2ccccc2)cc1OC` [KCN-1, N-((2,2-dimethyl-2H-chromen-6-yl)methyl)-3,4-dimethoxy-N-phenylbenzenesulfonamide, reference compound], the concentration for half-maximal inhibition (IC50) (Homo sapiens, n=26, read-out: IC50) was 700 ± 400 nM.

What is called IC50 is the midpoint of a concentration-inhibition curve.
